These are literature values, as cited in JP2018030810A, “ゲフィチニブを有効成分とする医薬錠剤の製造方法” (Nippon Kayaku Co Ltd, priority 2016, dated 2018).

Each structure is given as a SMILES string. Converted amounts (≈) assume the structure as drawn. Read-outs that look alike come from different tables or passages of the source.

The term solubility denotes how much of the substance goes into solution per volume.

On to `COc1cc2ncnc(Nc3ccc(F)c(Cl)c3)c2cc1OCCCN1CCOCC1` [ゲフィチニブ, N−(3−クロロ−4−フルオロフェニル)−7−メトキシ−6−[3−(モルフォリン−4−イル)プロポキシ]キナゾリン−4−アミン], for which the “solubility (in words)” value (pH1) is given as “可溶性”, the “solubility (in words)” value (pH4〜6) is on record as “溶解度は大きく低下”, the “solubility (in words)” value (pH7) is “実質的に不溶性” and the “solubility (in words)” value (water) is “ほとんど溶解しない”. In addition, under “pH6”, the solubility was roughly 1 mg/mL (≈ 2240 µM). The “aqueous solubility (in words)” value is given as “水溶解度が極端に低下する” (small intestine environment, pH4〜8) and “良好な水溶解度” (stomach, acidic environment pH1〜4).
